{"source": "patent US8999970B2", "about": "“Administration of an anti-obesity compound to individuals with renal impairment” (Arena Pharmaceuticals, Inc., priority 2010, dated 2015)", "type_in_all_cases": "in vivo, human", "key": {"[1]": {"assay": "Adverse events in the renal impairment clinical study APD356-016", "excerpt": "The incidence of adverse events was not related to severity of renal impairment. Events considered possibly or probably related to lorcaserin included 1 event each of abdominal pain (moderate group), diarrhea (moderate group), dyspepsia (mild group), stomach discomfort (mild group), and worsening renal impairment (moderate group). Two events of dizziness (1 in severe group, one in ESRD group) and 3 events of headache (2 normal, 1 moderate group) were considered possibly/probably related to study drug. A summary of the Treatment Emergent Adverse Events in the APD356-016 study by renal impairment groups and relationship to study drug are listed in Table 11."}, "[2]": {"assay": "Creatinine and creatinine clearance during 52 weeks in pooled phase 3 studies", "protocol": "Few patients in the APD356-009 trial developed creatinine values above or creatinine clearance values below normal (Table 12). At study entry, no patient had creatinine clearance less than 30 mL/min, and only 4 (1 randomized to lorcaserin, 3 to placebo) had values below 40 mL/min based on ideal body weight. […] Given the small number of patients with moderate or greater renal impairment in the phase 3 studies, a meaningful evaluation of the relationship between adverse events and renal impairment is not possible."}, "[3]": {"assay": "Pivotal phase 3 clinical trial program (weight loss)", "excerpt": "(§1) In December 2009, Arena Pharmaceuticals submitted a New Drug Application, or NDA, for lorcaserin to the FDA. The NDA submission is based on an extensive data package from lorcaserin's clinical development program that includes 18 clinical trials totaling 8,576 patients. […] About two-thirds of patients achieved at least 5% weight loss and over one-third achieved at least 10% weight loss. On average, patients lost 17 to 18 pounds or about 8% of their weight. Secondary endpoints, including body composition, lipids, cardiovascular risk factors and glycemic parameters improved compared to placebo. In addition, heart rate and blood pressure went down. […] Lorcaserin improved quality of life, and there was no signal for depression or suicidal ideation. The only adverse event that exceeded the placebo rate by 5% was generally mild or moderate, transient headache. Based on a normal BMI of 25, patients in the first phase 3 trial lost about one-third of their excess body weight. The average weight loss was 35 pounds or 16% of body weight for the top quartile of patients in the second phase 3 trial.\nas §1, with “Heart” for “In addition, heart”"}, "[4]": {"conditions": "phase 3 program, treated for up to two years"}}}
{"smiles": "C[C@H]1CNCCc2ccc(Cl)cc21", "note": "[Lorcaserin, (R)-8-chloro-1-methyl-2,3,4,5-tetrahydro-1H-3-benzazepine]", "values": [{"measurement": "Events of dizziness possibly/probably related", "setting": "[1]; 1 severe group, one ESRD group", "value": "Two"}, {"measurement": "Events of headache possibly/probably related", "setting": "[1]; 2 normal, 1 moderate group", "value": 3}, {"measurement": "Number (%) of Subjects Reporting AEs", "setting": "[1]; End Stage (N = 8)", "value": "1 (12.5%)"}, {"measurement": "Number (%) of Subjects Reporting AEs By Maximum Intensity: Mild", "setting": "[1]; End Stage (N = 8)", "value": "1 (12.5%)"}, {"measurement": "Number (%) of Subjects Reporting AEs By Maximum Intensity: Moderate", "setting": "[1]; End Stage (N = 8)", "value": "0 (0.0%)"}, {"measurement": "Number (%) of Subjects Reporting AEs By Maximum Intensity: Severe", "setting": "[1]; End Stage (N = 8)", "value": "0 (0.0%)"}, {"measurement": "Number (%) of Subjects Reporting AEs By Most Direct Relationship to Study Treatment: Not Related", "setting": "[1]; End Stage (N = 8)", "value": "1 (12.5%)"}, {"measurement": "Number (%) of Subjects Reporting AEs By Most Direct Relationship to Study Treatment: Possible", "setting": "[1]; End Stage (N = 8)", "value": "0 (0.0%)"}, {"measurement": "Number (%) of Subjects Reporting AEs By Most Direct Relationship to Study Treatment: Probable", "setting": "[1]; End Stage (N = 8)", "value": "0 (0.0%)"}, {"measurement": "Number (%) of Subjects Reporting AEs By Most Direct Relationship to Study Treatment: Unlikely", "setting": "[1]; End Stage (N = 8)", "value": "0 (0.0%)"}, {"measurement": "Number of AEs Reported", "setting": "[1]; End Stage (N = 8)", "value": 1}, {"measurement": "Number (%) of Subjects Reporting AEs", "setting": "[1]; Mild (N = 8)", "value": "2 (25.0%)"}, {"measurement": "Number (%) of Subjects Reporting AEs By Maximum Intensity: Mild", "setting": "[1]; Mild (N = 8)", "value": "2 (25.0%)"}, {"measurement": "Number (%) of Subjects Reporting AEs By Maximum Intensity: Moderate", "setting": "[1]; Mild (N = 8)", "value": "0 (0.0%)"}, {"measurement": "Number (%) of Subjects Reporting AEs By Maximum Intensity: Severe", "setting": "[1]; Mild (N = 8)", "value": "0 (0.0%)"}, {"measurement": "Number (%) of Subjects Reporting AEs By Most Direct Relationship to Study Treatment: Not Related", "setting": "[1]; Mild (N = 8)", "value": "0 (0.0%)"}, {"measurement": "Number (%) of Subjects Reporting AEs By Most Direct Relationship to Study Treatment: Possible", "setting": "[1]; Mild (N = 8)", "value": "1 (12.5%)"}, {"measurement": "Number (%) of Subjects Reporting AEs By Most Direct Relationship to Study Treatment: Probable", "setting": "[1]; Mild (N = 8)", "value": "1 (12.5%)"}, {"measurement": "Number (%) of Subjects Reporting AEs By Most Direct Relationship to Study Treatment: Unlikely", "setting": "[1]; Mild (N = 8)", "value": "0 (0.0%)"}, {"measurement": "Number of AEs Reported", "setting": "[1]; Mild (N = 8)", "value": 3}, {"measurement": "Number (%) of Subjects Reporting AEs", "setting": "[1]; Moderate (N = 8)", "value": "5 (62.5%)"}, {"measurement": "Number (%) of Subjects Reporting AEs By Maximum Intensity: Mild", "setting": "[1]; Moderate (N = 8)", "value": "4 (50.0%)"}, {"measurement": "Number (%) of Subjects Reporting AEs By Maximum Intensity: Moderate", "setting": "[1]; Moderate (N = 8)", "value": "1 (12.5%)"}, {"measurement": "Number (%) of Subjects Reporting AEs By Maximum Intensity: Severe", "setting": "[1]; Moderate (N = 8)", "value": "0 (0.0%)"}, {"measurement": "Number (%) of Subjects Reporting AEs By Most Direct Relationship to Study Treatment: Not Related", "setting": "[1]; Moderate (N = 8)", "value": "1 (12.5%)"}, {"measurement": "Number (%) of Subjects Reporting AEs By Most Direct Relationship to Study Treatment: Possible", "setting": "[1]; Moderate (N = 8)", "value": "3 (37.5%)"}, {"measurement": "Number (%) of Subjects Reporting AEs By Most Direct Relationship to Study Treatment: Probable", "setting": "[1]; Moderate (N = 8)", "value": "0 (0.0%)"}, {"measurement": "Number (%) of Subjects Reporting AEs By Most Direct Relationship to Study Treatment: Unlikely", "setting": "[1]; Moderate (N = 8)", "value": "1 (12.5%)"}, {"measurement": "Number of AEs Reported", "setting": "[1]; Moderate (N = 8)", "value": 9}, {"measurement": "Number (%) of Subjects Reporting AEs", "setting": "[1]; Normal (N = 8)", "value": "4 (50.0%)"}, {"measurement": "Number (%) of Subjects Reporting AEs By Maximum Intensity: Mild", "setting": "[1]; Normal (N = 8)", "value": "4 (50.0%)"}, {"measurement": "Number (%) of Subjects Reporting AEs By Maximum Intensity: Moderate", "setting": "[1]; Normal (N = 8)", "value": "0 (0.0%)"}, {"measurement": "Number (%) of Subjects Reporting AEs By Maximum Intensity: Severe", "setting": "[1]; Normal (N = 8)", "value": "0 (0.0%)"}, {"measurement": "Number (%) of Subjects Reporting AEs By Most Direct Relationship to Study Treatment: Not Related", "setting": "[1]; Normal (N = 8)", "value": "0 (0.0%)"}, {"measurement": "Number (%) of Subjects Reporting AEs By Most Direct Relationship to Study Treatment: Possible", "setting": "[1]; Normal (N = 8)", "value": "1 (12.5%)"}, {"measurement": "Number (%) of Subjects Reporting AEs By Most Direct Relationship to Study Treatment: Probable", "setting": "[1]; Normal (N = 8)", "value": "1 (12.5%)"}, {"measurement": "Number (%) of Subjects Reporting AEs By Most Direct Relationship to Study Treatment: Unlikely", "setting": "[1]; Normal (N = 8)", "value": "2 (25.0%)"}, {"measurement": "Number of AEs Reported", "setting": "[1]; Normal (N = 8)", "value": 4}, {"measurement": "Number (%) of Subjects Reporting AEs", "setting": "[1]; Severe (N = 8)", "value": "3 (37.5%)"}, {"measurement": "Number (%) of Subjects Reporting AEs By Maximum Intensity: Mild", "setting": "[1]; Severe (N = 8)", "value": "3 (37.5%)"}, {"measurement": "Number (%) of Subjects Reporting AEs By Maximum Intensity: Moderate", "setting": "[1]; Severe (N = 8)", "value": "0 (0.0%)"}, {"measurement": "Number (%) of Subjects Reporting AEs By Maximum Intensity: Severe", "setting": "[1]; Severe (N = 8)", "value": "0 (0.0%)"}, {"measurement": "Number (%) of Subjects Reporting AEs By Most Direct Relationship to Study Treatment: Not Related", "setting": "[1]; Severe (N = 8)", "value": "0 (0.0%)"}, {"measurement": "Number (%) of Subjects Reporting AEs By Most Direct Relationship to Study Treatment: Possible", "setting": "[1]; Severe (N = 8)", "value": "1 (12.5%)"}, {"measurement": "Number (%) of Subjects Reporting AEs By Most Direct Relationship to Study Treatment: Probable", "setting": "[1]; Severe (N = 8)", "value": "0 (0.0%)"}, {"measurement": "Number (%) of Subjects Reporting AEs By Most Direct Relationship to Study Treatment: Unlikely", "setting": "[1]; Severe (N = 8)", "value": "2 (25.0%)"}, {"measurement": "Number of AEs Reported", "setting": "[1]; Severe (N = 8)", "value": 4}, {"measurement": "Relation of incidence of adverse events to severity of renal impairment", "setting": "[1]; human, in vivo", "value": "not related"}, {"measurement": "Events of dyspepsia possibly or probably related", "setting": "[1]; mild group", "value": 1}, {"measurement": "Events of stomach discomfort possibly or probably related", "setting": "[1]; mild group", "value": 1}, {"measurement": "Events of abdominal pain possibly or probably related", "setting": "[1]; moderate group", "value": 1}, {"measurement": "Events of diarrhea possibly or probably related", "setting": "[1]; moderate group", "value": 1}, {"measurement": "Events of worsening renal impairment possibly or probably related", "setting": "[1]; moderate group", "value": 1}, {"measurement": "Creatinine Clearance at Last Observation (Ideal Body Weight), Mean (SEM) Change from Baseline", "setting": "[2]; Any Lorcaserin Dose, N 3746", "value": "0.25 (0.165)"}, {"measurement": "Creatinine Clearance at Last Observation (Ideal Body Weight), Mean (SEM) Change from Baseline", "setting": "[2]; Lorcaserin 10 mg BID Pooled, N 2992", "value": "0.47 (0.181)"}, {"measurement": "Excess body weight lost", "setting": "[3]; first phase 3 trial, based on a normal BMI of 25", "value": "about one-third"}, {"measurement": "Average weight lost, of their weight", "setting": "[3]; phase 3 program", "value": "about 8%"}, {"measurement": "Risk of cardiac valvulopathy", "setting": "[3]; phase 3 program", "value": "did not increase the risk"}, {"measurement": "Patients who achieved at least 5% weight loss", "setting": "[3]; [4]", "value": "About two-thirds"}, {"measurement": "Patients who achieved at least 10% weight loss", "setting": "[3]; [4]", "value": "over one-third"}, {"measurement": "Average weight loss, top quartile of patients", "setting": "[3]; second phase 3 trial", "value": 35, "unit": "pounds"}, {"measurement": "Average weight loss, top quartile of patients, of body weight", "setting": "[3]; second phase 3 trial", "value": 16, "unit": "%"}]}
